In US8067445B2, “N,N-disubstituted aminoalkylbiphenyl antagonists of prostaglandin D2 receptors” (Panmira Pharmaceuticals, LLC, priority 2008, dated 2011):
pIC50: −log10 of the molar value.

molecular target: T1, human DP2 receptor (Homo sapiens, UniProt Q9Y5Y4); assay: DP2/CRTH2 radioligand binding assay ([3H]PGD2); conditions: [3H]PGD2 binding, membranes of HEK293 cells expressing human DP2; read-out: hDP2
T1 construct: expressed in transfected cells
T1 sequence (Q9Y5Y4 1-395): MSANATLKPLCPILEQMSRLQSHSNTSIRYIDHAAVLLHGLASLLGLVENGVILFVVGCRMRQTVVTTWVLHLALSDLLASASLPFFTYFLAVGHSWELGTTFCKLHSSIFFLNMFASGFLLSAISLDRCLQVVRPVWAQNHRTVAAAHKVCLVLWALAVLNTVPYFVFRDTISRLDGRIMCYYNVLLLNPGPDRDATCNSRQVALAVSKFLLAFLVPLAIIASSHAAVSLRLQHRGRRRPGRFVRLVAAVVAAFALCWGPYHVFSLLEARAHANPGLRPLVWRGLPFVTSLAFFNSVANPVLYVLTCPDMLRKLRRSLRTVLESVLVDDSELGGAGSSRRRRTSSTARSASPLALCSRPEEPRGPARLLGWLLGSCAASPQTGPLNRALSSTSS
Procedure: The ability of a compound to bind to the human DP2 receptor is assessed via a radioligand binding assay using [^3H]PGD2. HEK293 cells stably expressing recombinant human DP2 are resuspended in 10 mM Hepes, 7.4 containing 1 mM DTT, lysed and centrifuged at 75,000×g to pellet the membranes. The membranes are resuspended in 10 mM Hepes, 7.4 containing 1 mM DTT and 10% glycerol to approximately 5 mg protein/ml. Membranes (2-10 μg protein/well) are incubated in 96-well plates with 1 nM [^3H]PGD2 and test compound in Assay Buffer (50 mM Hepes, 10 mM MnCl2, 1 mM EDTA, plus or minus 0.2% human serum albumin, pH 7.4) for 60 minutes at room temperature. The reactions are terminated by rapid filtration through Whatman GF/C glass fibre filter plates. The filter plates were pre-soaked in 0.33% polyethylenimine for 30 minutes at room temperature then washed in Wash Buffer (50 mM Hepes, 0.5 M NaCl pH 7.4) prior to harvesting. After harvesting, the filter plates are washed 3 times with 1 ml cold Wash Buffer then dried. Scintillant is then added to the plates and the radioactivity retained on the filters is determined on a Packard TopCount (Perkin Elmer). Specific binding is determined as total radioactive binding minus non-specific binding in the presence of 10 μM PGD2. IC50s were determined using GraphPad prism analysis of drug titration curves.

Row | pIC50 | SMILES
1 | > 6.52 | CCN(Cc1cc(C(F)(F)F)ccc1-c1cc(Cl)cc(C(C)C(=O)O)c1)C(=O)NCc1ccccc1 (stereo not shown) [Compound 1-223, 2-[2′-(3-Benzyl-1-ethyl-ureidomethyl)-5-chloro-4′-trifluoromethyl-biphenyl-3-yl]-propionic acid]
2 | 4.52 to 6.00 | CCN(Cc1cc(C(F)(F)F)ccc1-c1cc([C@H](C)C(=O)O)ccc1OC)C(=O)C1CC1 [Compound 1-225, (S)-2-{2′-[(Cyclopropanecarbonyl-ethyl-amino)-methyl]-6-methoxy-4′-trifluoromethyl-biphenyl-3-yl}-propionic acid]
3 | > 6.52 | CCOc1ccc(-c2ccc(-c3cc(CC(=O)O)ccc3OC)c(CN(CC)C(=O)COc3ccc(Cl)cc3)c2)cn1 [Compound 1-229, [2′-({[2-(4-Chloro-phenoxy)-acetyl]-ethyl-amino}-methyl)-4′-(6-ethoxy-pyridin-3-yl)-6-methoxy-biphenyl-3-yl]-acetic acid]
4 | > 6.52 | CCN(Cc1cc(-c2ccc3ncccc3c2)ccc1-c1cc(CC(=O)O)ccc1OC)C(=O)C1CC1 [Compound 1-230, {2′-[(Cyclopropanecarbonyl-ethyl-amino)-methyl]-6-methoxy-4′-quinolin-6-yl-biphenyl-3-yl}-acetic acid]
5 | > 6.52 | CCN(Cc1cc(-c2ccc3ncccc3c2)ccc1-c1cc(CC(=O)O)ccc1OC)C(=O)NCc1ccccc1 [Compound 1-231, [2′-(3-Benzyl-1-ethyl-ureidomethyl)-6-methoxy-4′-quinolin-6-yl-biphenyl-3-yl]-acetic acid]
6 | > 6.52 | CCN(Cc1cc(-c2ccc3ncccc3c2)ccc1-c1cc(CC(=O)O)ccc1OC)C(=O)COc1ccc(Cl)cc1 [Compound 1-232, [2′-({[2-(4-Chloro-phenoxy)-acetyl]-ethyl-amino}-methyl)-6-methoxy-4′-quinolin-6-yl-biphenyl-3-yl]-acetic acid]
7 | 6.00 to 6.52 | CCN(Cc1cc(C(F)(F)F)ccc1-c1cc(C(F)(F)F)cc(C(C)(C)C(=O)O)c1)C(=O)C1CC1 [Compound 1-236, 2-{2′-[(Cyclopropanecarbonyl-ethyl-amino)-methyl]-5,4′-bis-trifluoromethyl-biphenyl-3-yl}-2-methyl-propionic acid]
8 | > 6.52 | CCN(Cc1cc(C(F)(F)F)ccc1-c1cc([C@H](C)C(=O)O)cc(C(F)(F)F)c1)C(=O)C1CC1 [Compound 1-238, (S)-2-{2′-[(Cyclopropanecarbonyl-ethyl-amino)-methyl]-5,4′-bis-trifluoromethyl-biphenyl-3-yl}-propionic acid]
9 | > 6.52 | CCN(Cc1cc(C(F)(F)F)ccc1-c1cc([C@@H](C)C(=O)O)cc(C(F)(F)F)c1)C(=O)NCc1ccccc1 [Compound 1-239, (R)-2-[2′-(3-Benzyl-1-ethyl-ureidomethyl)-5,4′-bis-trifluoromethyl-biphenyl-3-yl]-propionic acid]
10 | > 6.52 | CCN(Cc1cc(C(F)(F)F)ccc1-c1cc([C@H](C)C(=O)O)cc(C(F)(F)F)c1)C(=O)NCc1ccccc1 [Compound 1-240, (S)-2-[2′-(3-Benzyl-1-ethyl-ureidomethyl)-5,4′-bis-trifluoromethyl-biphenyl-3-yl]-propionic acid]
11 | > 6.52 | CCN(Cc1cc(SC)ccc1-c1cc(Cl)cc(CC(=O)O)c1)C(=O)C1CC1 [Compound 1-242, {5-Chloro-2′-[(cyclopropanecarbonyl-ethyl-amino)-methyl]-4′-methylsulfanyl-biphenyl-3-yl}-acetic acid]
12 | > 6.52 | CCN(Cc1cc(C(F)(F)F)ccc1-c1cc(C(C)C(=O)O)ccc1OC)C(=O)NC1CC1 (stereo not shown) [Compound 1-243, 2-[2′-(3-Cyclopropyl-1-ethyl-ureidomethyl)-6-methoxy-4′-trifluoromethyl-biphenyl-3-yl]-propionic acid]
13 | 4.52 to 6.00 | CCN(Cc1cc(C(F)(F)F)ccc1-c1cc(CC(=O)O)ccc1OC)C(=O)C(C)(C)C [Compound 1-245, (2′-{[(2,2-Dimethyl-propionyl)-ethyl-amino]-methyl}-6-methoxy-4′-trifluoromethyl-biphenyl-3-yl)-acetic acid]
14 | > 6.52 | CCN(Cc1cc(-c2ccc(F)cn2)ccc1-c1cc(CC(=O)O)ccc1OC)C(=O)C1CC1 [Compound 1-249, [2′-[(Cyclopropanecarbonyl-ethyl-amino)-methyl]-4′-(5-fluoro-pyridin-2-yl)-6-methoxy-biphenyl-3-yl]-acetic acid]
15 | > 6.52 | CCN(Cc1cc(-c2ncc(OC)cn2)ccc1-c1cc(CC(=O)O)ccc1OC)C(=O)C1CC1 [Compound 1-250, [2′-[(Cyclopropanecarbonyl-ethyl-amino)-methyl]-6-methoxy-4′-(5-methoxy-pyrimidin-2-yl)-biphenyl-3-yl]-acetic acid]
16 | > 6.52 | CCOc1ccc(-c2ccc(-c3cc(CC(=O)O)ccc3OC)c(CN(CC)C(=O)c3ccccc3)c2)cn1 [Compound 1-254, [2′-[(Benzoyl-ethyl-amino)-methyl]-4′-(6-ethoxy-pyridin-3-yl)-6-methoxy-biphenyl-3-yl]-acetic acid]
17 | > 6.52 | CCOc1ccc(-c2ccc(-c3cc(CC(=O)O)ccc3OC)c(CN(CC)C(=O)Cc3ccccc3)c2)cn1 [Compound 1-255, {4′-(6-Ethoxy-pyridin-3-yl)-2′-[(ethyl-phenylacetyl-amino)-methyl]-6-methoxy-biphenyl-3-yl}-acetic acid]
18 | > 6.52 | CCOc1ccc(-c2ccc(-c3cc(CC(=O)O)ccc3OC)c(CN(CC)C(=O)CCc3ccccc3)c2)cn1 [Compound 1-256, (4′-(6-Ethoxy-pyridin-3-yl)-2′-{[ethyl-(3-phenyl-propionyl)-amino]-methyl}-6-methoxy-biphenyl-3-yl)-acetic acid]
19 | < 4.52 | CCN(Cc1cc(C(F)(F)F)ccc1-c1cc([C@@H](C)C(=O)N[C@H](C)Cc2ccccc2)cc(C(F)(F)F)c1)C(=O)NCc1ccccc1 [Compound 2-10, (R)-2-[2′-(3-Benzyl-1-ethyl-ureidomethyl)-5,4′-bis-trifluoromethyl-biphenyl-3-yl]-N—((R)-1-methyl-2-phenyl-ethyl)-propionamide]
20 | > 6.52 | CCN(Cc1cc(C(F)(F)F)ccc1-c1cc([C@H](C)C(=O)N[C@H](C)Cc2ccccc2)cc(C(F)(F)F)c1)C(=O)NCc1ccccc1 [Compound 2-11, (S)-2-[2′-(3-Benzyl-1-ethyl-ureidomethyl)-5,4′-bis-trifluoromethyl-biphenyl-3-yl]-N—((R)-1-methyl-2-phenyl-ethyl)-propionamide]
21 | < 4.52 | CCN(Cc1cc(C(F)(F)F)ccc1-c1cc([C@@H](C)C(=O)N2C(=O)O[C@@H](c3ccccc3)[C@H]2C)ccc1OC)C(=O)C1CC1 [Compound 2-12, Cyclopropanecarboxylic acid ethyl-{2′-methoxy-5′-[(R)-1-methyl-2-((4R,5S)-4-methyl-2-oxo-5-phenyl-oxazolidin-3-yl)-2-oxo-ethyl]-4-trifluoromethyl-biphenyl-2-ylmethyl}-amide]
22 | 4.52 to 6.00 | CCN(Cc1cc(C(F)(F)F)ccc1-c1cc([C@H](C)C(=O)N2C(=O)O[C@@H](c3ccccc3)[C@H]2C)ccc1OC)C(=O)C1CC1 [Compound 2-13, Cyclopropanecarboxylic acid ethyl-{2′-methoxy-5′-[(S)-1-methyl-2-((4R,5S)-4-methyl-2-oxo-5-phenyl-oxazolidin-3-yl)-2-oxo-ethyl]-4-trifluoromethyl-biphenyl-2-ylmethyl}-amide]
